The source of these data is patent US7880059B2, “Production of proanthocyanidins to improve forage quality” (The Samuel Roberts Noble Foundation, priority 2007, dated 2011).

Data set [1] addresses T1, UGT78G1 (Medicago truncatula, UniProt A6XNC6).
T1 sequence (A6XNC6 1-454): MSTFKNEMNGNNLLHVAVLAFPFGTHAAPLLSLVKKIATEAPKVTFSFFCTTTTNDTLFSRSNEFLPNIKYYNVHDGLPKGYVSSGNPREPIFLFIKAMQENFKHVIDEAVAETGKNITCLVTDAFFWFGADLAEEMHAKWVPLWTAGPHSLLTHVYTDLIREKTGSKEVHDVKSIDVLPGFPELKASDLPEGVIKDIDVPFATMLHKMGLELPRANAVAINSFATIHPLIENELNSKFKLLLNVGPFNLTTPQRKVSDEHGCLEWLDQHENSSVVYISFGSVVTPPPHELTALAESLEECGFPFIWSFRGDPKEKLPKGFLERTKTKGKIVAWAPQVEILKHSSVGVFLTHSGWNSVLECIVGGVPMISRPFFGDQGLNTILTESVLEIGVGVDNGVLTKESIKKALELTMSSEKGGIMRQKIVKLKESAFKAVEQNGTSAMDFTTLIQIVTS
As to the kind of experiment: UGT78G1 enzyme reactions with acceptor substrates, products analyzed by HPLC. Type of data set: biochemical. Further details: hexahistidine tag with thrombin cleavage site (pET28a(+)) (N); made in house; host or cells: E. coli BL21 (DE3). From the text: Reactions were stopped with TCA and products analyzed by HPLC as described above.

For data set [2], the target named is T1, UGT78G1. The data set is described as follows: Kinetic analysis of UGT78G1 (GT83F) with (iso)flavonoid acceptor substrates, UDP-[14C]-glucose donor. The conditions noted are these: for Kcat/Km ratio: unit not given; for Kcat / Km / Vmax: recombinant UGT78G1, donor UDP-glucose, 30° C., pH 7.0; for Vmax compared with that for most of the other substrates / substrate quality for UGT78G1 in vitro: in words. How it is done: The PCR product was purified, ligated to pGEMTeasy vector (Promega, Madison, Wis., USA), sequenced, excised and re-cloned between the BamHI and NotI sites of pET28a(+) (Novagen, Madison, Wis., USA) with a hexahistidine tag and a thrombin cleavage site. E. coli BL21 (DE3) cells harboring the expression construct were grown to an OD600 of 0.4-0.5, and expression was initiated by addition of isopropyl 1-thio-β-D-galactopyranoside (IPTG) at a final concentration of 0.2 mM, with further incubation with shaking overnight at 16° C. The enzyme was purified from E. coli lysates by nickel affinity chromatography.
Reactions were stopped with TCA after 15 min incubation at 30° C. Samples were extracted with 250 μl of ethyl acetate, and 200 μl were taken for liquid scintillation counting (Beckman LS6500). Data were analyzed using Hyper32 software for the analysis of enzyme-kinetic data (J. S. Easterby, University of Liverpool, Liverpool, UK; available at www.liv.ac.uk/˜jse/software.html).

Data set [3] concerns the target T1, UGT78G1. Set-up: hexahistidine tag with thrombin cleavage site (pET28a(+)) (N); made in house; host or cells: E. coli BL21 (DE3). As to conditions: in vitro (Modolo et al, 2007); cited from earlier work.
Substrate in data set [4]: O=c1c(O)c(-c2ccc(O)c(O)c2)oc2cc(O)cc(O)c12
The data set is described as follows: purified protein, by the assay type. The conditions noted are these: other: recombinant UGT78G1, donor UDP-glucose, 30° C., pH 7.0.

Substrate in data set [5]: O=c1c(O)c(-c2ccc(O)cc2)oc2cc(O)cc(O)c12
As to the kind of experiment: purified protein, by the assay type. The conditions noted are these: other: recombinant UGT78G1, donor UDP-glucose, 30° C., pH 7.0.

Substrate in data set [6]: O=c1cc(-c2ccc(O)cc2)oc2cc(O)cc(O)c12
The data set is described as follows: purified protein, by the assay type. The conditions noted are these: other: recombinant UGT78G1, donor UDP-glucose, 30° C., pH 7.0.

Substrate in data set [7]: O=c1c(-c2ccc(O)cc2)coc2cc(O)cc(O)c12
The data set is described as follows: purified protein, by the assay type. As to conditions: other: recombinant UGT78G1, donor UDP-glucose, 30° C., pH 7.0.

Consider `O=c1cc(-c2ccc(O)cc2)oc2cc(O)cc(O)c12` [apigenin], for which the “position of glycosylation by UGT78G1” value on UGT78G1 [1] is 7-O-position. Also, the Kcat/Km ratio at UGT78G1 [2] is 1,534.
Turning to `COc1ccc(-c2coc3cc(O)cc(O)c3c2=O)cc1` [biochanin A (4′-methoxy genistein)], the “position of glycosylation by UGT78G1” value at UGT78G1 [1] was 7-O-position. Also, on UGT78G1 [2], the Kcat was 0.012 s⁻¹, the Km came out at 11.7 µM and the maximum rate (Vmax) was found to be 0.3666 µmol/min.
Consider `O=c1c(-c2ccc(O)cc2)coc2cc(O)ccc12` [daidzein], for which the Km at UGT78G1 [2] came to 1.6 µM.
For the molecule `COc1ccc(-c2coc3cc(O)ccc3c2=O)cc1` [formononetin], the “position of glycosylation by UGT78G1” value on UGT78G1 [1] was 7-O-position. Moreover, on UGT78G1 [2], the Kcat is 0.0029 s⁻¹, the Km was 1.5 µM and the Vmax worked out at 0.0879 µmol/min. The “preference (Kcat/Km) for formononetin over daidzein” value at UGT78G1 [2] (relative to daidzein) is “about 2 fold”.
For the molecule `O=c1c(-c2ccc(O)cc2)coc2cc(O)cc(O)c12` [genistein], at UGT78G1 [1], the “position of glycosylation by UGT78G1” value is listed as 7-O-position. Further, on UGT78G1 [2], the Kcat was 0.004 s⁻¹, the Vmax stood at 1.2050 µmol/min and the Kcat/Km ratio was 1,098. The “Km of genistein relative to Km of daidzein” value at UGT78G1 [2] (relative to daidzein) is reported as 23 fold.
Turning to `O=c1c(O)c(-c2ccc(O)cc2)oc2cc(O)cc(O)c12` [kaempferol], the “position of glycosylation by UGT78G1” value on UGT78G1 [1] is on record as 3-position. Further, at UGT78G1 [2], the “Vmax compared with that for most of the other substrates” value is “much higher”, the Kcat is 0.053 s⁻¹ and the Vmax turned out to be 1.5830 µmol/min.
As to `Oc1ccc(-c2[o+]c3cc(O)cc(O)c3cc2O)cc1` [pelargonidin], on UGT78G1 [2], the “substrate quality for UGT78G1 in vitro” value is “relatively poor substrates”, the Kcat stood at 0.0057 s⁻¹, the Km is 71.8 µM and the Vmax came to 0.1698 µmol/min. The “activity of UGT78G1 with substrate” value at UGT78G1 [3] is recorded as “shows activity”.
With `O=c1c(O)c(-c2ccc(O)c(O)c2)oc2cc(O)cc(O)c12` [quercetin], on UGT78G1 [1], the “position of glycosylation by UGT78G1” value is 3-position. Further, at UGT78G1 [2], the “Vmax compared with that for most of the other substrates” value is “much higher”, the Kcat stood at 0.029 s⁻¹ and the Vmax was determined as 0.8557 µmol/min.
Regarding cyanidin, at UGT78G1 [2], the “substrate quality for UGT78G1 in vitro” value is “relatively poor substrates”, the Kcat came out at 0.0068 s⁻¹, the Michaelis-Menten constant (Km) worked out at 52 µM and the Vmax worked out at 0.2025 µmol/min. The “activity of UGT78G1 with substrate” value on UGT78G1 [3] was “shows activity”.

B1: UGT78G1 (Medicago truncatula) (protein)
chain: T1 sequence (A6XNC6 1-454)
Take B1: the Km in data set [4] was 28.7 µM; in data set [5], 89.8 µM; in data set [6] it was 1.5 µM; in data set [7], 36.7 µM. The Vmax in data set [6] came out at 0.0688 µmol/min. Besides, the kcat in data set [6] was 0.0023 s⁻¹. In data set [6], the specificity constant (kcat/Km) was found to be 1530 M⁻¹ s⁻¹.
